Activity calls are given as the source filed them. No cut-off for these calls is given here. Bounds are passed on as bounds.

The test system of assay [1] is Calf thymus DNA. The assay is described as follows: Binding affinity to calf thymus DNA assessed as intercalation by measuring viscosity by viscometer analysis. It is filed as nucleic-acid assay. Particulars: Bos taurus.
Assay [2] in a line: Antioxidant activity assessed as suppression ratio of hydroxyl radical formation at 0.5 uM after 30 mins by absorbance analysis. It is filed as functional.
Assay [3] can be described thus: Antioxidant activity assessed as suppression of hydroxyl radical formation after 30 mins by absorbance analysis. The class given is functional.
For assay [4], the species on record is Bos taurus. Put plainly: Intrinsic binding affinity to calf thymus DNA at 231 nm after 5 mins by electronic absorption analysis.
A short description of assay [5]: Antitumor activity against human SKBR3 cells assessed as growth inhibition after 48 hrs by MTT assay. The conditions noted are these: SK-BR-3, 48 h. It is filed as functional, cell-based. (Tetrazolium assays rely on reduction of a dye to a coloured formazan, in cell work by metabolically active cells.)
For assay [6], the system named is Escherichia coli. The assay is described as follows: Induction of Escherichia coli supercoiled pBR322 DNA cleavage assessed as increase in open circular form measured after UV irradiation by agarose gel electrophoresis analysis.
The nature of assay [7]: Antitumor activity against human Bel7402 cells assessed as growth inhibition after 48 hrs by MTT assay. It is filed as functional, cell-based. Particulars: Bel-7402, 48 h.
Assay [8] deals with Calf thymus DNA. The assay is described as follows: Binding affinity to calf thymus DNA assessed as decrease in compound emission intensity at 356 nm at 20 uM by luminescence spectrometer analysis. The class given is nucleic-acid assay. Particulars: Bos taurus.
Assay [9] in a line: Antioxidant activity assessed as suppression ratio of hydroxyl radical formation at 3.5 uM after 30 mins by absorbance analysis. The class given is functional.
Assay [10] can be described thus: Antioxidant activity assessed as suppression ratio of hydroxyl radical formation at 2.5 uM after 30 mins by absorbance analysis. The class given is functional.
Assay [11] deals with Escherichia coli. The assay is described as follows: Induction of Escherichia coli supercoiled pBR322 DNA cleavage assessed as decrease in intact supercoiled form measured after UV irradiation by agarose gel electrophoresis analysis.
The test system of assay [12] is Calf thymus DNA. The assay is described as follows: Binding affinity to calf thymus DNA assessed as hypochromicity at 231 nm at 40 uM after 5 mins by electronic absorption analysis. Particulars: Bos taurus. The class given is nucleic-acid assay.
Assay [13] is described as follows: Antioxidant activity assessed as suppression ratio of hydroxyl radical formation at 1.5 uM after 30 mins by absorbance analysis. It is filed as functional.
For assay [14], the system named is Calf thymus DNA. The assay is described as follows: Binding affinity to calf thymus DNA assessed as luminescence intensity at compound to DNA ratio of 1:2 by job plot analysis. The class given is nucleic-acid assay. The conditions noted are these: Bos taurus.
Assay [15] in a line: Antitumor activity against human MG63 cells assessed as growth inhibition after 48 hrs by MTT assay. It is filed as functional, cell-based. The conditions noted are these: MG-63, 48 h.
The nature of assay [16]: Antioxidant activity assessed as suppression ratio of hydroxyl radical formation at 3 uM after 30 mins by absorbance analysis. The class given is functional.
Assay [17] can be described thus: Antioxidant activity assessed as suppression ratio of hydroxyl radical formation at 2 uM after 30 mins by absorbance analysis. It is filed as functional.
The nature of assay [18]: Antioxidant activity assessed as suppression ratio of hydroxyl radical formation at 1 uM after 30 mins by absorbance analysis. The class given is functional.
For assay [19], the system named is A549. The assay is described as follows: Antitumor activity against human A549 cells assessed as growth inhibition after 48 hrs by MTT assay. The class given is functional, cell-based. Particulars: A549, 48 h.
In assay [20] the test system is Calf thymus DNA. The assay is described as follows: Binding affinity to calf thymus DNA assessed as luminescence intensity at compound to DNA ratio of 1:1 by job plot analysis. It is filed as nucleic-acid assay. The conditions noted are these: Bos taurus.
For assay [21], the system named is Calf thymus DNA. Put plainly: Binding affinity to calf thymus DNA assessed as decrease in compound emission intensity at 705 nm at 20 uM by luminescence spectrometer analysis. The class given is nucleic-acid assay. The conditions noted are these: Bos taurus.
Assay [22] relates to Calf thymus DNA. Put plainly: Binding affinity to calf thymus DNA assessed as luminescence intensity at compound to DNA ratio of 4:1 by job plot analysis. The conditions noted are these: Bos taurus. The class given is nucleic-acid assay.
The subject of assay [23] is Calf thymus DNA. Put plainly: Binding affinity to calf thymus DNA assessed as increase in compound emission intensity at 446 nm at 20 uM by luminescence spectrometer analysis. The class given is nucleic-acid assay. The conditions noted are these: Bos taurus.
Assay [24] relates to A549. Put plainly: Induction of apoptosis in human A549 cells assessed as necrotic cells at 50 uM after 24 hrs by flow cytometry (reference value: 0.04%). The class given is functional. A general note: Flow cytometry measures light scatter and fluorescence of single cells or particles in a stream.
Assay [25] deals with A549. Put plainly: Induction of apoptosis in human A549 cells assessed as necrotic cells at 25 uM after 24 hrs by flow cytometry (reference value: 0.04%). The class given is functional.
The test system of assay [26] is A549. Put plainly: Induction of apoptosis in human A549 cells assessed as apoptotic cells at 25 uM after 24 hrs by flow cytometry (reference value: 0%). The class given is functional.
Assay [27] relates to A549. Put plainly: Induction of cell cycle arrest in human A549 cells assessed as accumulation at G2/M phase of cell cycle at 25 uM after 24 hrs by propidium iodide staining based flow cytometry (reference value: 14.73%). The class given is functional.
The subject of assay [28] is A549. Put plainly: Induction of apoptosis in human A549 cells assessed as apoptotic cells at 50 uM after 24 hrs by flow cytometry (reference value: 0%). It is filed as functional.
For assay [29], the system named is A549. The assay is described as follows: Induction of apoptosis in human A549 cells assessed as viable cells at 50 uM after 24 hrs by flow cytometry (reference value: 92.28%). It is filed as functional. The conditions noted are these: A549, 24 h, read-out: Activity.
The test system of assay [30] is A549. Put plainly: Induction of apoptosis in human A549 cells after 24 hrs by flow cytometry. It is filed as functional, cell-based.
The subject of assay [31] is A549. Put plainly: Induction of cell cycle arrest in human A549 cells assessed as accumulation at S phase of cell cycle at 25 uM after 24 hrs by propidium iodide staining based flow cytometry (reference value: 9.8%). The class given is functional.
The test system of assay [32] is A549. The assay is described as follows: Induction of apoptosis in human A549 cells assessed as viable cells at 25 uM after 24 hrs by flow cytometry (reference value: 92.28%). The class given is functional. Particulars: A549, 24 h, read-out: Activity.
Assay [33] has as its system Calf thymus DNA. Put plainly: Binding affinity to calf thymus DNA assessed as hypochromicity at 233 nm at 40 uM after 5 mins by electronic absorption analysis. It is filed as nucleic-acid assay. The conditions noted are these: Bos taurus.
In assay [34] the test system is A549. Put plainly: Induction of cell cycle arrest in human A549 cells assessed as accumulation at G0/G1 phase of cell cycle at 25 uM after 24 hrs by propidium iodide staining based flow cytometry (reference value: 73.79%). The class given is functional.
The species entered for assay [35] is Bos taurus. Put plainly: Intrinsic binding affinity to calf thymus DNA at 233 nm after 5 mins by electronic absorption analysis.

Turning to `OCc1nc2cc(-c3c(O)ccc4ccccc34)c3ccccc3c2o1`, the result in [1], in assay [6] and in assay [11] was Active. The inhibition is 4.04% in assay [2]; “Dose-dependent effect” in assay [3]; 79.6% in [8]; 88.2% in assay [9]; 26.9% in assay [10]; 12.3% in assay [13]. In addition, the values for the inhibition in assay [16], in [17] and in assay [18] were 87.9%, 23.9% and 9.24%, respectively. The Kb in assay [4] was found to be 5.31 ×10³ /M. For the same compound, the IC50 in [5], in assay [7], in assay [15] and in assay [19] was > 100 µM in each case. Besides, the Activity in assay [12] is 33.4%. Further, the Flu intensity in [14] is 0.32 a.u.

As to `CC(=O)OCc1nc2cc(-c3c(OC(C)=O)ccc4ccccc34)c3ccccc3c2o1`, the Flu intensity in assay [20] stood at 0.54 a.u. Further, the outcome in assay [1], in [6] and in assay [11] was Active. In addition, the inhibition in assay [2] was 18.9%; in assay [3], “Dose-dependent effect”; in assay [21] it was 60.4%; in assay [9] it was 89%; in assay [10] it was 81.2%; in assay [13], 50.4%. Further, the inhibition in assay [16] was found to be 86.4%; in [17], 75.7%; in assay [18], 32.5%. For the same compound, the Kb in [4] was 2.64 ×10³ /M. Also, the IC50 in assay [5], in assay [7], in assay [15] and in assay [19] was > 100 µM in each case. The Activity in assay [12] amounted to 29%.

Turning to `OCc1nc2cc(-c3c(O)ccc4cc(Br)ccc34)c3cc(Br)ccc3c2o1`, the Flu intensity in assay [22] is 0.8 a.u. For the same compound, the result in [1], in assay [6] and in [11] was Active. Besides, the inhibition is 15.2% in assay [2]; “Dose-dependent effect” in [3]; 86.7% in assay [9]; 52.8% in [10]; 28.3% in [13]; 80.9% in assay [16]. The inhibition is 35.9% in assay [17] and 23.5% in [18]. Moreover, the IC50 in assay [5] was > 100 µM; in assay [7] it was 56.4 µM; in [15], > 100 µM; in [19], 59.8 µM. The Activity in [23] came out at 5.76%; in [24], 3.18%; in assay [25], 2.87%; in assay [26], 3.57%; in [27], 15.5%; in assay [28] it was 4.09%. The Activity result in [30] is “Dose-dependent effect”; in assay [31], 11.16%; in [33] it was 34.6%; in [34], 71.9%. In assay [29], the viability at 50 µM was 80%. For the same compound, in assay [32], the viability at 25 µM worked out at 83.5%. For the same compound, the Kb in [35] came out at 4.44 ×10³ /M.

In general, inhibition refers to the percentage by which the read-out fell short of the control. One may read the IC50 as the concentration that gives 50% inhibition.
